Laboratory results taken from patent US20190175534A1, “PHARMACEUTICAL COMPOSITIONS COMPRISING DGLA AND USE OF SAME” (DS Biopharma Limited, priority 2016, published 2019).
Values belong to the compound of their own block, whether it stands above or below them.

Key:
[1] = tested on: spontaneous hypertensive rats; experiment: Arterial pressure in spontaneous hypertensive rats after seven days of gavage, with intravenous phenylephrine challenge; assay type: in vivo, rat
[2] = set-up: species or system human; details: in vivo, po
Description: A single-center, double-blind, randomized, placebo-controlled, two part Phase one study was performed in healthy male and female subjects aged 18 to 45 years inclusive. The primary objective of this study was to assess the safety and plasma pharmacokinetics (PK) of orally administered single doses and orally administered multiple doses of DS107G capsules (once daily for 28 days) in healthy subjects.
Subjects were randomly assigned in a 3:1 ratio of DG107G to placebo by block randomization. Single dose part one of the study comprised three cohorts of eight subjects each, with the addition of Cohort four based on evaluation of the safety data of Cohort three by the Safety Monitoring Committee (SMC). A single oral dose of DS107G or matching placebo was administered to fasted subjects in Cohorts one to three (500, 1000, and 2000 mg, respectively) in parallel; subjects in Cohort four were administered a dose of 4000 mg following completion of Cohort three. Subjects in Cohort two received 1000 mg or matching placebo in the fed state at ≥14 days after the first dose.
Safety assessments were monitored throughout the study.
In Part one of the study, subjects in Cohorts one to three were administered a single dose of study drug (either 500-, 1000-, or 2000-mg as 500-mg DS107G capsules or matching placebo capsules) in parallel on study Day 1 after at least an 8-hour fast, according to Table 20. Cohort 4 was initiated following the review of safety data from Cohort 3 by the SMC.

Structure (SMILES): CC(=O)Oc1ccccc1C(=O)O [Aspirin, aspirin]
Mean arterial pressure, Average SAP ([1]; Aspirin gavage 7 days, phenylephrine 20 μg/kg iv): 174.3

Free 15-HETrE plasma concentration [2]: < 100 ng/mL
Structure (SMILES): CCCCC[C@H](O)/C=C/C=C\C/C=C\CCCCCCC(=O)O [Batch 15-HETrE, 15-Hydroxyeicosatrienoic acid]

Structure (SMILES): COc1ccccc1OCCNCC(O)COc1cccc2[nH]c3ccccc3c12 (stereo not drawn) [Carvedilol, carvedilol]
Effect on mean systemic arterial pressure when added after phenylephrine ([1]; 0.1 mg/kg i.v., aspirin-fed rats): significant decrease
